Results as given in paper PMC3856494, “Radiofluorination and biological evaluation of N-aryl-oxadiazolyl-propionamides as potential radioligands for PET imaging of cannabinoid CB2 receptors” (Organic and Medicinal Chemistry Letters, 2013).
Read-outs that look alike come from different tables or passages of the source.

Legend:
human CB1R = human CB1R (Homo sapiens, UniProt P21554); test: In vitro CB receptor affinity assay, displacement of [3H]CP55,940, CHO cells transfected with human CB1R; type: binding
Method: (§1) For binding experiments, Chinese hamster ovary (CHO) cell lines stably transfected with human CB1R human and CB2R were used according to the procedures previously described. […] The binding experiments were performed in triplicates, and data were given as mean values from independent experiments.

[1] = HPLC-based logD determination; type: physicochemical; settings: RP-HPLC, reference compounds
Method: The distribution coefficients of [^18F]1 and [^18F]2 were also calculated from RP-HPLC retention times in three different systems: (1) isocratic elution (60% MeCN/20 mM NH4OAc at a flow rate of 1 mL/min) and (2) gradient elution (starting from 10% MeCN/20 mM NH4OAc aq. for 10 min with a gradient to 90% MeCN/20 mM NH4OAc aq. over 30 min at a flow rate of 1 mL/min) on a Reprosil-Pur C18-AQ column (5 μm, 250 × 4.6 mm, Dr. Maisch HPLC GmbH, Ammerbruch-Entringen, Germany), and (3) isocratic elution (52.5% MeCN/20 mM NH4OAc at a flow rate of 1 mL/min) on a Prodigy 5 μm C8 (250 × 4 mm; Phenomenex Ltd, Aschaffenburg, Germany) using the reference compounds following the protocol according to the EU guideline 67/548/EWG [44].

human CB2R = human CB2R (Homo sapiens, UniProt P34972); test: In vitro CB receptor affinity assay, displacement of [3H]CP55,940, CHO cells transfected with human CB2R; type: binding
Method: as §1

[2] = In vitro radiochemical stability; type: physicochemical; settings: all selected media, 40°C, up to 90 min
Method: In vitro radiochemical stabilities of [^18F]1 and [^18F]2 were investigated in 0.9% NaCl solution, Dulbecco’s phosphate buffer, 0.01 M Tris–HCl (pH 7.4 at 21°C), and EtOH at 40°C for 90 min. Samples were taken at 15, 30, 60, and 90 min after incubation and analyzed by radio-TLC and radio-HPLC.

[3] = Ex vivo metabolite studies (radio-HPLC of plasma and brain extracts); type: in vivo, CD1 mice; settings: mice
Method: [^18F]1 and [^18F]2 (100 to 150 MBq, 250 to 450 GBq/μmol in 150 μL NaCl 0.9%/10% EtOH) were injected via the tail vein in CD1 male mice (10 to 12 weeks old, 20 to 25 g). Blood and urine samples were obtained at 30 and 60 min p.i. (n = 3 per time point). Twofold extractions of plasma and brain samples (n = 3) were performed using ice-cold MeCN according to the standard protocol established in our group (see [47, 48]). Briefly, plasma samples were obtained by centrifugation of the blood at 4,000×g at 4°C for 10 min, and brain samples were homogenized in ice-cold 50 mM Tris–HCl (pH = 7.4). The samples were vortexed, incubated on ice, and centrifuged at 10,000×g for 3 min. Supernatants were collected, and the precipitates were re-dissolved in ice-cold MeCN for the second extraction. The supernatants from the two extractions were combined, concentrated under a gentle argon stream at 65°C, and analyzed by radio-TLC and gradient analytical HPLC (see ‘Radiochemistry’ section). Aliquots from each extraction supernatant and the precipitates were also taken and quantified by γ counting (Wallac Wizard 1470, Perkin Elmer Inc., Waltham, MA, USA) along with the respective aliquots of intact plasma samples and brain homogenates. A moderate recovery of radioactivity was obtained from plasma samples and brain homogenates (60% to 70%). Radiometabolites of [^18F]17 in the plasma, spleen, and brain were assessed at 30 and 60 min p.i.

[4] = Ex vivo biodistribution (organ distribution) in mice; settings: i.v. 300 to 400 kBq, female CD1 mice
Method: (§2) Female CD1 mice (10 to 12 weeks old, 20 to 25 g) received an injection of 300 to 400 kBq of [^18F]1 or [^18F]2 with specific activities of >450 GBq/μmol in 200 μL of 0.9% NaCl/10% EtOH into the tail vein. The animals were anesthetized (CO2/O2 mixture) for blood and urine sampling and euthanized by luxation of the cervical spine at 5, 30, and 60 min after injection (p.i.) (n = 2 to 5 per time). The organs of interest were removed and weighed, and the activities were measured by γ counting using a calibrated γ counter Wallac Wizard 1470 (Perkin Elmer Inc., Waltham, MA, USA). The percentage of injected dose per gram of wet tissue (% ID/g wet weight) was calculated.

CB2R = CB2R (Mus musculus, UniProt P47936); set-up: species or system female CD1 mice; settings: female, CD1, mouse, in vivo
Method: as §2
(3 mg/kg i.p. in 0.9% saline, 10 min before the injection of the radiotracer) at 60 min p.i. (n = 2 to 5). The unpaired two-tailed t test was used to compare the results between the groups. We considered differences to be significant at a p value <0.05.

Sequence of CB2R (P47936 whole entry): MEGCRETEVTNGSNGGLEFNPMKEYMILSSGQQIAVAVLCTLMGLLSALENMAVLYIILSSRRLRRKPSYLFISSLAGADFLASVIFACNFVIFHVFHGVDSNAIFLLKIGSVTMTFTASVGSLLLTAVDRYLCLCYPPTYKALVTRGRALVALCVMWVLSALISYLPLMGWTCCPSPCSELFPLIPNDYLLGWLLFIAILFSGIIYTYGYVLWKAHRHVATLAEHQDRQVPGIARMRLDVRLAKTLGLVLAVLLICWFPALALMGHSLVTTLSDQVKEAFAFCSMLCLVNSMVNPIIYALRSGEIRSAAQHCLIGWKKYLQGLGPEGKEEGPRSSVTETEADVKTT
Sequence of human CB1R (P21554 whole entry): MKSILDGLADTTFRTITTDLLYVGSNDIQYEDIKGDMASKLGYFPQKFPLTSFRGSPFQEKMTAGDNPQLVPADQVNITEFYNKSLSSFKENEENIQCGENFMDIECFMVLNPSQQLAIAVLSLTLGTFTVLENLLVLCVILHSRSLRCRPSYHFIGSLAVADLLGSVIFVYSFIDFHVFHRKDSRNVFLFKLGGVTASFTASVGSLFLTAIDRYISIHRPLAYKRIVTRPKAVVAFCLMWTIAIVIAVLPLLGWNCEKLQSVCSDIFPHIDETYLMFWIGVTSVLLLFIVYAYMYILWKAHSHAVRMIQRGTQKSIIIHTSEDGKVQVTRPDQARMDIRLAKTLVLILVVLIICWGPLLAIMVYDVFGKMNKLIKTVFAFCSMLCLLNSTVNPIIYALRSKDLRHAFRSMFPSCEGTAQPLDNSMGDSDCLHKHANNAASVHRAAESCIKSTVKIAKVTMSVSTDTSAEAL
Sequence of human CB2R (P34972 whole entry): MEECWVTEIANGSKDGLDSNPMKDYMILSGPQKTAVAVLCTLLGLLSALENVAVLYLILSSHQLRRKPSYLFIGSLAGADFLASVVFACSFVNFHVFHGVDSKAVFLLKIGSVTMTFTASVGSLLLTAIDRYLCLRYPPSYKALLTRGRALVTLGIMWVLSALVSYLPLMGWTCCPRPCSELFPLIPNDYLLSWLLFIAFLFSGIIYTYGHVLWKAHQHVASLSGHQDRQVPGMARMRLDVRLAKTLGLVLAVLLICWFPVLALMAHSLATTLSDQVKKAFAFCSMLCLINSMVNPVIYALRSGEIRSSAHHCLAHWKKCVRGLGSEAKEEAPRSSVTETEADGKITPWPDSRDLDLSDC

O=C(CCc1nc(-c2ccc(F)cc2Br)no1)Nc1ccc2c(c1)c1ccccc1n2CCF [Compound 1, 3-[3-(2-Bromo-4-fluorophenyl)-1,2,4-oxadiazol-5-yl]-N-[9-(2-fluoroethyl)-9H-carbazol-3-yl]propanamide]
Ki (human CB1R): > 1000 nM
chromatographic logD ([1]; Prodigy 5 μm C8 column, isocratic 52.5% MeCN/20 mM NH4OAc, n = 3 to 6, read-out: logD Prodigy 5 μ C8 Isocratic): 3.86 ± 0.33
chromatographic logD ([1]; Reprosil-Pur C18-AQ column, gradient 10% to 90% MeCN/20 mM NH4OAc, n = 3 to 6, read-out: logD Reposil-Pur C18-AQ Gradient): 3.82 ± 0.1
chromatographic logD ([1]; Reprosil-Pur C18-AQ column, isocratic 60% MeCN/20 mM NH4OAc, n = 3 to 6, read-out: logD Reposil-Pur C18-AQ Isocratic): 4.21 ± 0.32
Ki (human CB2R): 2.32 ± 2.12 nM

CCn1c2ccccc2c2cc(NC(=O)CCc3nc(-c4ccc([18F])cc4Br)no3)ccc21 [[^18F]2]
intact tracer [2]: ≥ 98%
Percentage of total activity in brain samples, 30 min p.i. ([3]; brain homogenate extract, 30 min p.i. of [18F]1 or [18F]2, radio-HPLC): 88%
Percentage of total activity in brain samples, 60 min p.i. ([3]; brain homogenate extract, 60 min p.i. of [18F]1 or [18F]2, radio-HPLC): 43%
Relative percentage of intact tracer and radiometabolites, Plasma 30 min p.i. ([3]; plasma, 30 min p.i. of [18F]1 or [18F]2, radio-HPLC): 2%
Relative percentage of intact tracer and radiometabolites, Plasma 60 min p.i. ([3]; plasma, 60 min p.i. of [18F]1 or [18F]2, radio-HPLC): 2%
Radioactivity uptake, Adrenals, Control 5 min [4]: 7.67 ± 2.18 % ID/g
Radioactivity uptake, Adrenals, Control 30 min [4]: 5.38 ± 0.61 % ID/g
Radioactivity uptake, Adrenals, Control 60 min [4]: 2.44 ± 0.72 % ID/g
Radioactivity uptake, Bladder, Control 5 min [4]: 1.01 ± 0.29 % ID/g
Radioactivity uptake, Bladder, Control 30 min [4]: 2.02 ± 0.39 % ID/g
Radioactivity uptake, Bladder, Control 60 min [4]: 1.45 ± 0.57 % ID/g
Radioactivity uptake, Blood, Control 5 min [4]: 2.29 ± 0.48 % ID/g
Radioactivity uptake, Blood, Control 30 min [4]: 3.42 ± 0.39 % ID/g
Radioactivity uptake, Blood, Control 60 min [4]: 2.50 ± 0.42 % ID/g
Radioactivity uptake, Brain, Control 5 min [4]: 0.62 ± 0.22 % ID/g
Radioactivity uptake, Brain, Control 30 min [4]: 0.86 ± 0.34 % ID/g
Radioactivity uptake, Brain, Control 60 min [4]: 0.26 ± 0.07 % ID/g
Radioactivity uptake, Femur, Control 5 min [4]: 1.63 ± 0.93 % ID/g
Radioactivity uptake, Femur, Control 30 min [4]: 1.10 ± 0.03 % ID/g
Radioactivity uptake, Femur, Control 60 min [4]: 0.58 ± 0.11 % ID/g
Radioactivity uptake, Gonads, Control 5 min [4]: 1.14 ± 0.32 % ID/g
Radioactivity uptake, Gonads, Control 30 min [4]: 2.08 ± 0.03 % ID/g
Radioactivity uptake, Gonads, Control 60 min [4]: 2.29 ± 0.57 % ID/g
Radioactivity uptake, Heart, Control 5 min [4]: 3.42 ± 0.57 % ID/g
Radioactivity uptake, Heart, Control 30 min [4]: 2.32 ± 0.24 % ID/g
Radioactivity uptake, Heart, Control 60 min [4]: 1.45 ± 0.20 % ID/g
Radioactivity uptake, Kidney, Control 5 min [4]: 5.86 ± 0.96 % ID/g
Radioactivity uptake, Kidney, Control 30 min [4]: 5.90 ± 0.15 % ID/g
Radioactivity uptake, Kidney, Control 60 min [4]: 3.96 ± 1.25 % ID/g
Radioactivity uptake, Large intestine, Control 5 min [4]: 0.46 ± 0.06 % ID/g
Radioactivity uptake, Large intestine, Control 30 min [4]: 1.25 ± 0.30 % ID/g
Radioactivity uptake, Large intestine, Control 60 min [4]: 1.86 ± 0.36 % ID/g
Radioactivity uptake, Liver, Control 5 min [4]: 31.31 ± 9.91 % ID/g
Radioactivity uptake, Liver, Control 30 min [4]: 8.84 ± 0.83 % ID/g
Radioactivity uptake, Liver, Control 60 min [4]: 6.27 ± 0.68 % ID/g
Radioactivity uptake, Lung, Control 5 min [4]: 4.62 ± 0.21 % ID/g
Radioactivity uptake, Lung, Control 30 min [4]: 3.36 ± 0.02 % ID/g
Radioactivity uptake, Lung, Control 60 min [4]: 2.52 ± 0.60 % ID/g
Radioactivity uptake, Muscle, Control 5 min [4]: 1.00 ± 0.30 % ID/g
Radioactivity uptake, Muscle, Control 30 min [4]: 0.92 ± 0.15 % ID/g
Radioactivity uptake, Muscle, Control 60 min [4]: 0.70 ± 0.27 % ID/g
Radioactivity uptake, Pancreas, Control 5 min [4]: 2.04 ± 0.59 % ID/g
Radioactivity uptake, Pancreas, Control 30 min [4]: 1.71 ± 0.15 % ID/g
Radioactivity uptake, Pancreas, Control 60 min [4]: 0.82 ± 0.21 % ID/g
Radioactivity uptake, Plasma, Control 5 min [4]: 3.87 ± 0.90 % ID/g
Radioactivity uptake, Plasma, Control 30 min [4]: 6.82 ± 1.19 % ID/g
Radioactivity uptake, Plasma, Control 60 min [4]: 5.22 ± 0.73 % ID/g
Radioactivity uptake, Small intestine, Control 5 min [4]: 3.86 ± 2.64 % ID/g
Radioactivity uptake, Small intestine, Control 30 min [4]: 20.78 ± 3.28 % ID/g
Radioactivity uptake, Small intestine, Control 60 min [4]: 27.31 ± 2.44 % ID/g
Radioactivity uptake, Spleen, Control 5 min [4]: 10.42 ± 7.67 % ID/g
Radioactivity uptake, Spleen, Control 30 min [4]: 1.34 ± 0.10 % ID/g
Radioactivity uptake, Spleen, Control 60 min [4]: 0.68 ± 0.11 % ID/g
Radioactivity uptake, Stomach, Control 5 min [4]: 1.57 ± 1.18 % ID/g
Radioactivity uptake, Stomach, Control 30 min [4]: 2.09 ± 0.81 % ID/g
Radioactivity uptake, Stomach, Control 60 min [4]: 2.21 ± 0.43 % ID/g
Radioactivity uptake, Thymus, Control 5 min [4]: 2.30 ± 1.06 % ID/g
Radioactivity uptake, Thymus, Control 30 min [4]: 1.96 ± 0.22 % ID/g
Radioactivity uptake, Thymus, Control 60 min [4]: 1.04 ± 0.08 % ID/g
Radioactivity uptake, Adrenals, Blocking 60 min (CB2R; 3 mg/kg, 1 h): 3.34 ± 0.15 % ID/g
Radioactivity uptake, Bladder, Blocking 60 min (CB2R; 3 mg/kg, 1 h): 1.77 ± 0.16 % ID/g
Radioactivity uptake, Blood, Blocking 60 min (CB2R; 3 mg/kg, 1 h): 3.40 ± 0.21 % ID/g
Radioactivity uptake, Brain, Blocking 60 min (CB2R; 3 mg/kg, 1 h): 0.28 ± 0.03 % ID/g
Radioactivity uptake, Femur, Blocking 60 min (CB2R; 3 mg/kg, 1 h): 0.61 ± 0.09 % ID/g
Radioactivity uptake, Gonads, Blocking 60 min (CB2R; 3 mg/kg, 1 h): 1.97 ± 0.39 % ID/g
Radioactivity uptake, Heart, Blocking 60 min (CB2R; 3 mg/kg, 1 h): 1.53 ± 0.13 % ID/g
Radioactivity uptake, Kidney, Blocking 60 min (CB2R; 3 mg/kg, 1 h): 4.91 ± 1.51 % ID/g
Radioactivity uptake, Large intestine, Blocking 60 min (CB2R; 3 mg/kg, 1 h): 1.78 ± 0.23 % ID/g
Radioactivity uptake, Liver, Blocking 60 min (CB2R; 3 mg/kg, 1 h): 10.51 ± 1.10 % ID/g
Radioactivity uptake, Lung, Blocking 60 min (CB2R; 3 mg/kg, 1 h): 2.31 ± 0.19 % ID/g
Radioactivity uptake, Muscle, Blocking 60 min (CB2R; 3 mg/kg, 1 h): 0.70 ± 0.06 % ID/g
Radioactivity uptake, Pancreas, Blocking 60 min (CB2R; 3 mg/kg, 1 h): 1.02 ± 0.11 % ID/g
Radioactivity uptake, Plasma, Blocking 60 min (CB2R; 3 mg/kg, 1 h): 5.78 ± 0.07 % ID/g
Radioactivity uptake, Small intestine, Blocking 60 min (CB2R; 3 mg/kg, 1 h): 29.64 ± 5.10 % ID/g
Radioactivity uptake, Spleen, Blocking 60 min (CB2R; 3 mg/kg, 1 h): 0.74 ± 0.10 % ID/g
Radioactivity uptake, Stomach, Blocking 60 min (CB2R; 3 mg/kg, 1 h): 3.24 ± 2.10 % ID/g
Radioactivity uptake, Thymus, Blocking 60 min (CB2R; 3 mg/kg, 1 h): 1.77 ± 0.14 % ID/g
% control, Adrenals (CB2R; 60 min): 137 % control
% control, Bladder (CB2R; 60 min): 122 % control
% control, Blood (CB2R; 60 min): 136 % control
% control, Brain (CB2R; 60 min): 108 % control
% control, Femur (CB2R; 60 min): 106 % control
% control, Gonads (CB2R; 60 min): 86 % control
% control, Heart (CB2R; 60 min): 106 % control
% control, Kidney (CB2R; 60 min): 124 % control
% control, L. intestine (CB2R; 60 min): 96 % control
% control, Liver (CB2R; 60 min): 168 % control
% control, Lung (CB2R; 60 min): 92 % control
% control, Muscle (CB2R; 60 min): 99 % control
% control, Pancreas (CB2R; 60 min): 125 % control
% control, Plasma (CB2R; 60 min): 111 % control
% control, S. intestine (CB2R; 60 min): 109 % control
% control, Spleen (CB2R; 60 min): 110 % control
% control, Stomach (CB2R; 60 min): 146 % control
% control, Thymus (CB2R; 60 min): 171 % control
